Experimental data published in paper PMC2248166, “Quantitative peptide binding motifs for 19 human and mouse MHC class I molecules derived using positional scanning combinatorial peptide libraries” (Immunome Research, 2008).

How the values were obtained:
[1] = target: HLA A*3001 (Homo sapiens, UniProt P04439, D140H/D185E/E176W/F33S/G80R/H175R/K168Q/R138E/R41S); test: biochemical; assay type: binding
[2] = target: HLA A*3201 (Homo sapiens, UniProt P04439, A270S/D101S/D185E/E176V/E277Q/F133L/G103R/G107R/G231S/H175R/I121M/I218V/I322F/K168Q/L105A/L300P/L318F/M331R/P208A/P217A/Q94H/R106L/R138Q/S129P/T104I/T323A/T345S/V100E/V321M/V358M); test: biochemical; assay type: binding
[3] = target: HLA A*6802 (Homo sapiens, UniProt P04439, A269V/D140Y/D185E/E176V/E277Q/E87N/F33Y/G231S/I121R/I166T/I218V/L180W/L300P/L318F/N151K/P208A/P217A/Q86R/R138H/R169H/S129P/T345S/V36M); assay type: binding
[4] = target: HLA B*0702 (Homo sapiens, UniProt P01889); assay type: binding; details: positional scanning combinatorial 9-mer library; normalized to 1.0 for the best residue at each position
[5] = target: HLA B*0801 (Homo sapiens, UniProt P01889, A93T/A95T/D138N/E176V/E187T/K202T/Q94N/R180D/S35A/V36M/Y33D/Y91F); test: biochemical; assay type: binding
[6] = target: HLA B*1501 (Homo sapiens, UniProt P01889, A329T/A93T/A95T/C349S/D201E/D98Y/E187L/E204Q/E69M/E70A/K202T/N87E/Q94N/R155S/R180W/S121R/S35A/S48A/V306I/V36M/Y140S/Y91S); test: biochemical; assay type: binding
[7] = target: HLA B*1503 (Homo sapiens, UniProt P01889, A329T/A93T/A95T/C349S/D201E/D98Y/E187L/E204Q/K202T/N87E/Q94N/R155S/R180L/S121R/S35A/V306I/V36M/Y140S/Y91S); test: biochemical; assay type: binding
[8] = target: HLA B*2705 (Homo sapiens, UniProt P01889, D138H/D201E/E176V/E204Q/G107R/H137Y/K202T/N104T/N87E/Q56L/Q94K/R106L/R155S/R180L/S101D/S121N/S48T/Y140D/Y33H/Y91C); assay type: binding; details: positional scanning combinatorial 9-mer library; normalized to 1.0 for the best residue at each position
[9] = target: HLA B*3501 (Homo sapiens, UniProt P01889, A329T/A93T/A95T/C349S/D201E/D98Y/E176V/E187L/E204Q/E69T/I218V/K202T/L119I/Q94N/R155S/R180L/S121R/S35A/S48A/T118I/V127L/V306I/V36M/Y140S/Y91F); assay type: binding
[10] = target: HLA B*5101 (Homo sapiens, UniProt P01889, A329T/A93T/A95T/C349S/D138N/D201E/D98Y/E187L/E204Q/E69T/G107R/I218V/K202T/L105A/L119W/N104I/Q94N/R106L/R155S/R180L/S101N/S121T/S35A/S48A/V306I/V36M/Y195H/Y91F); assay type: binding
[11] = target: HLA B*5301 (Homo sapiens, UniProt P01889, A329T/A93T/A95T/C349S/D201E/D98Y/E176V/E187L/E204Q/E69T/G107R/I218V/K202T/L105A/L119I/N104I/Q94N/R106L/R155S/R180L/S101N/S121R/S35A/S48A/T118I/V127L/V306I/V36M/Y140S/Y91F); assay type: binding
[12] = target: HLA B*5401 (Homo sapiens, UniProt P01889, A329T/C349S/D138N/D201E/E176V/E187T/E204Q/E69G/I76V/K202T/L119W/R155S/R180L/S121T/S35A/S48A/V127L/V306I/V36M/Y140L); assay type: binding
[13] = target: HLA B*5801 (Homo sapiens, UniProt P01889, A329T/C349S/D201E/D98Y/E176V/E187L/E204Q/E69T/G107R/I218V/I90N/K202T/L105A/L119I/N104I/N87E/Q89R/Q94S/R106L/R155S/R180L/R86G/S101N/S121R/S35A/S48A/T118I/V127L/V306I/V36M/Y140S/Y91M); assay type: binding
[14] = target: HLA B*5802 (Homo sapiens, UniProt P01889, A329T/C349S/D201E/D98Y/E176V/E187L/E204Q/E69T/G107R/I218V/I90N/K202T/L105A/N104I/N87E/Q89R/Q94S/R106L/R155S/R180L/R86G/S101N/S121W/S35A/S48A/V127L/V306I/V36M/Y140S/Y91M); assay type: binding
[15] = target: H-2 D^b (Mus musculus, UniProt P01899); assay type: binding
[16] = target: H-2 D^d (Mus musculus, UniProt P01900); assay type: binding
[17] = target: H-2 K^k (Mus musculus, UniProt P04223); assay type: binding
[18] = target: HLA A*0201 (Homo sapiens, UniProt P04439, D140Y/D185E/D98H/E176V/E277Q/G131W/G231S/I119V/I121R/I166T/I218V/L300P/L318F/N151K/N90K/P208A/P217A/Q86G/Q94H/R138H/R169H/T345S); details: positional scanning combinatorial 9-mer library; normalized to 1.0 for the best residue at each position

H-2 D^d, sequence (P01900 whole entry, looked up): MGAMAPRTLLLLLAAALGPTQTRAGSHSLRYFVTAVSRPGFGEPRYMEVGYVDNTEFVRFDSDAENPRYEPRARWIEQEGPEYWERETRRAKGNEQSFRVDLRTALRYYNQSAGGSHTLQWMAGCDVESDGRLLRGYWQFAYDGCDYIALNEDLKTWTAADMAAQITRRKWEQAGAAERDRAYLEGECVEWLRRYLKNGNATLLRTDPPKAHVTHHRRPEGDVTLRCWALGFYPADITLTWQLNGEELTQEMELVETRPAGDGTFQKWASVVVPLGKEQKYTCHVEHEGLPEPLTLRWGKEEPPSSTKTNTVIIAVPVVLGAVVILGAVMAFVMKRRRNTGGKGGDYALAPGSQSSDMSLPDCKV
H-2 D^b, sequence (P01887 21-119): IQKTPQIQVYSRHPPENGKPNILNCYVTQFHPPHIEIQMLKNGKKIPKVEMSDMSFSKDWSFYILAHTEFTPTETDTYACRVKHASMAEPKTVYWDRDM
H-2 D^b, sequence (P01899 25-362): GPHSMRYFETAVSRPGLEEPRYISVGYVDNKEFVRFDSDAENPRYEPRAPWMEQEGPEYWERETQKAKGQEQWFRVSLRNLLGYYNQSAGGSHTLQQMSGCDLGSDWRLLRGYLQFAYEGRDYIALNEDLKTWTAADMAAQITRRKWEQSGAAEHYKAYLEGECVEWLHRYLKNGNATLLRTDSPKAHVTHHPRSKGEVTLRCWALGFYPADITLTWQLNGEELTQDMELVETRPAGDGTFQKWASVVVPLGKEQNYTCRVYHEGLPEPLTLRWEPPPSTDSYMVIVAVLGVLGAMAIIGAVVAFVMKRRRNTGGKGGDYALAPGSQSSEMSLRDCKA
H-2 K^k, sequence (P01887 21-119): as the sequence (P01887 21-119) above
H-2 K^k, sequence (P04223 22-369): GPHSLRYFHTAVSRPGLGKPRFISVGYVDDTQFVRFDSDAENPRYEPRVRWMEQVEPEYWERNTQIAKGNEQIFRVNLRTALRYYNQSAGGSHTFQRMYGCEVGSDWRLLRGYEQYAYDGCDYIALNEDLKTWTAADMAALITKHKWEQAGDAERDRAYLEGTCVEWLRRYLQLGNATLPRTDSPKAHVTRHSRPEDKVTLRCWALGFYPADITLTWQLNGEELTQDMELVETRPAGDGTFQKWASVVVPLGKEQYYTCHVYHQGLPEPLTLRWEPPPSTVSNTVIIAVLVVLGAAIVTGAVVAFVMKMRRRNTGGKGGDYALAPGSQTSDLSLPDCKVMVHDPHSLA

Sequence	Normalized average relative binding affinity (ARB), HLA A*3001 [1]	Normalized average relative binding affinity (ARB), HLA A*3201 [2]	Normalized average relative binding affinity (ARB), HLA A*6802 [3]	Normalized average relative binding affinity (ARB), HLA B*0702 [4]	Normalized average relative binding affinity (ARB), HLA B*0801 [5]	Normalized average relative binding affinity (ARB), HLA B*1501 [6]	Normalized average relative binding affinity (ARB), HLA B*1503 [7]	Normalized average relative binding affinity (ARB), HLA B*2705 [8]	Normalized average relative binding affinity (ARB), HLA B*3501 [9]	Normalized average relative binding affinity (ARB), HLA B*5101 [10]	Normalized average relative binding affinity (ARB), HLA B*5301 [11]	Normalized average relative binding affinity (ARB), HLA B*5401 [12]	Normalized average relative binding affinity (ARB), HLA B*5801 [13]	Normalized average relative binding affinity (ARB), HLA B*5802 [14]	Normalized average relative binding affinity (ARB), H-2 Db [15]	Normalized average relative binding affinity (ARB), H-2 Dd [16]	Normalized average relative binding affinity (ARB), H-2 Kk [17]	Normalized average relative binding affinity (ARB), HLA A*0201 [18]
FXXXXXXXX [3064.0005]	0.035	0.090	0.53	0.21	0.57	0.59	1.0	0.60	0.50	0.25	0.14	0.74	0.34	0.081	1.0	0.34	1.0	1.0
XXWXXXXXX [3064.0059]	0.0080	0.95	0.70	0.14	0.19	0.16	0.35	0.68	0.61	0.47	0.076	1.0	0.29	0.95	0.18	0.0028	0.48	0.58
NXXXXXXXX [3064.0012]	0.065	0.13	0.24	0.15	0.43	0.22	0.14	0.095	0.29	0.19	0.027	0.12	0.056	0.063	0.31	0.19	0.80	0.067
TXXXXXXXX [3064.0017]	0.050	0.11	0.29	0.12	0.076	0.13	0.14	0.12	0.14	0.089	0.027	0.026	0.12	0.062	0.096	0.25	0.65	0.094
XXSXXXXXX [3064.0056]	0.040	0.29	0.50	0.093	0.057	0.41	0.41	0.27	0.11	0.16	0.15	0.014	0.33	0.066	0.084	0.0061	0.43	0.17
XXDXXXXXX [3064.0043]	0.0018	0.085	0.025	0.031	0.015	0.039	0.032	0.020	0.11	0.070	0.096	0.0033	0.11	0.047	0.022	0.012	0.059	0.46
